Key:
Test in all cases: filter binding kinase assay
Type in all cases: biochemical
MAPK9 = molecular target: T1, MAPK9 (Homo sapiens, UniProt P45984); details: derived from % inhibition at 1 μM
T1 construct: purchased
How it was run: (§1)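 Each reaction ran at ambient temperature following a five-minute compound preincubation, was started with ATP (5, 20 or 50 […] stock, per enzyme) and stopped with acid; substrate phosphorylation was read by scintillation counting of P81 filters.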

MAP3K11 (MLK3) = molecular target: T2, MAP3K11 (MLK3) (Homo sapiens, UniProt Q16584); details: for IC50: derived from % inhibition at 1 μM
T2 construct: purchased
T2 sequence (Q16584 whole entry, species assumed): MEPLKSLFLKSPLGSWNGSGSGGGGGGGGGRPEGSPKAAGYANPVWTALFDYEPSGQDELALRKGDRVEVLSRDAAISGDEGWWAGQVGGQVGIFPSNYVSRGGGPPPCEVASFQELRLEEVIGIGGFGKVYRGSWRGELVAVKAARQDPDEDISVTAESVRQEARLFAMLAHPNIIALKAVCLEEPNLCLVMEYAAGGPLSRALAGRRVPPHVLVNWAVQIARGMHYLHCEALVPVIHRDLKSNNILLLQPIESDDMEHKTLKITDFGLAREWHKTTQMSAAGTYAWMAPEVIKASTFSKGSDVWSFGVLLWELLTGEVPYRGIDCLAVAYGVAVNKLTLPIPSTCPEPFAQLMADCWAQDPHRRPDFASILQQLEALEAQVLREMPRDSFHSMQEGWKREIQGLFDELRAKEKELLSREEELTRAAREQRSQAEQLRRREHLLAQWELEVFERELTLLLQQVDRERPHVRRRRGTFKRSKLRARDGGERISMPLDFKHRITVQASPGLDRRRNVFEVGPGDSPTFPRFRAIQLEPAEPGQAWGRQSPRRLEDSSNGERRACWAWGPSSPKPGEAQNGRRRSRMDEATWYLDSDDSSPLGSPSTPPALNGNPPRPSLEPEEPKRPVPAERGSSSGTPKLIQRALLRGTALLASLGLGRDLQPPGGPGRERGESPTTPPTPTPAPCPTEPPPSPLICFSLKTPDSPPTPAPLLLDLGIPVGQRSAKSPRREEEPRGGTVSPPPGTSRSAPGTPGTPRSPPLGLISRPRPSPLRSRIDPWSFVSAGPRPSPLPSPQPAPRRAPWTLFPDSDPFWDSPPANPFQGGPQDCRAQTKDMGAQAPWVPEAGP
How it was run: as §1

RPS6KA3 = molecular target: T3, RPS6KA3 (Homo sapiens, UniProt P51812); details: derived from % inhibition at 1 μM
T3 construct: purchased
T3 sequence (P51812 whole entry, species assumed): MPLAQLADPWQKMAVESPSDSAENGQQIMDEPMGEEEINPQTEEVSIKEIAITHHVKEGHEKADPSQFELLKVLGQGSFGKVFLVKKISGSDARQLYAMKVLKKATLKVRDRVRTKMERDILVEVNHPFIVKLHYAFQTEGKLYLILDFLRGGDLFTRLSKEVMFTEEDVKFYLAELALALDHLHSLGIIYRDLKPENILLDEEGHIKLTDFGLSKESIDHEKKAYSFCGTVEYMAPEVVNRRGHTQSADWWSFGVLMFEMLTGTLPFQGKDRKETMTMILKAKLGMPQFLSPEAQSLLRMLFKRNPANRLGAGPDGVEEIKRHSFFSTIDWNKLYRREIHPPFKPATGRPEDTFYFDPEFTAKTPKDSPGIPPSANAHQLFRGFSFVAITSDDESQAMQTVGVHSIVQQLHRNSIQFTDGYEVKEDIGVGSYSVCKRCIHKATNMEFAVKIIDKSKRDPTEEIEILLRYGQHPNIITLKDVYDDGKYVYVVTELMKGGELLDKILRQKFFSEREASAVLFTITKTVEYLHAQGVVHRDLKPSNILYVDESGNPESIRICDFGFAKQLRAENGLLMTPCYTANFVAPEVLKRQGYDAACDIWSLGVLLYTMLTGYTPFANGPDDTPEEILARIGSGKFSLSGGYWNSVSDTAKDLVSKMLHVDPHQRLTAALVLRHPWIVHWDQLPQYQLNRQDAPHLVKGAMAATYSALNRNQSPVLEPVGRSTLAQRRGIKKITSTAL
How it was run: as §1

DYRK3 = molecular target: T4, DYRK3 (Homo sapiens, UniProt O43781); details: derived from % inhibition at 1 μM
T4 construct: purchased
T4 sequence (O43781 1-588): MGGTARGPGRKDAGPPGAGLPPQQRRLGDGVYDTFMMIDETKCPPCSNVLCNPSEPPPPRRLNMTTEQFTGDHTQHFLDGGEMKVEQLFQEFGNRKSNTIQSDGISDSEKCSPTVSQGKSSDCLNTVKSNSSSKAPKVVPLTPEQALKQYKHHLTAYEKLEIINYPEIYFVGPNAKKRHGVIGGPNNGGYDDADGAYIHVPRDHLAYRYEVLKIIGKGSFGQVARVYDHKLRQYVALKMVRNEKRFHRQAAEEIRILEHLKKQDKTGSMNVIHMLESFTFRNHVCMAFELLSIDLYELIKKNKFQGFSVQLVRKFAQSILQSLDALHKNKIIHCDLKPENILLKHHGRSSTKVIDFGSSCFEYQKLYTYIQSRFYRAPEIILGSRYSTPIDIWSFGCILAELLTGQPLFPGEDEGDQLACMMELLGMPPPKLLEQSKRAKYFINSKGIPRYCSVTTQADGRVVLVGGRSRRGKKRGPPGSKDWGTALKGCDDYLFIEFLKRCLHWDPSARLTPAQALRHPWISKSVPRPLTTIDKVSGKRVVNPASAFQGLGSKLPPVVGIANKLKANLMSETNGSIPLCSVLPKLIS
How it was run: as §1

DYRK1A = molecular target: T5, DYRK1A (Homo sapiens, UniProt Q13627); details: derived from % inhibition at 1 μM
T5 construct: purchased
How it was run: as §1

DYRK2 = molecular target: T6, DYRK2 (Homo sapiens, UniProt Q92630); details: derived from % inhibition at 1 μM
T6 construct: purchased
T6 sequence (Q92630 1-601): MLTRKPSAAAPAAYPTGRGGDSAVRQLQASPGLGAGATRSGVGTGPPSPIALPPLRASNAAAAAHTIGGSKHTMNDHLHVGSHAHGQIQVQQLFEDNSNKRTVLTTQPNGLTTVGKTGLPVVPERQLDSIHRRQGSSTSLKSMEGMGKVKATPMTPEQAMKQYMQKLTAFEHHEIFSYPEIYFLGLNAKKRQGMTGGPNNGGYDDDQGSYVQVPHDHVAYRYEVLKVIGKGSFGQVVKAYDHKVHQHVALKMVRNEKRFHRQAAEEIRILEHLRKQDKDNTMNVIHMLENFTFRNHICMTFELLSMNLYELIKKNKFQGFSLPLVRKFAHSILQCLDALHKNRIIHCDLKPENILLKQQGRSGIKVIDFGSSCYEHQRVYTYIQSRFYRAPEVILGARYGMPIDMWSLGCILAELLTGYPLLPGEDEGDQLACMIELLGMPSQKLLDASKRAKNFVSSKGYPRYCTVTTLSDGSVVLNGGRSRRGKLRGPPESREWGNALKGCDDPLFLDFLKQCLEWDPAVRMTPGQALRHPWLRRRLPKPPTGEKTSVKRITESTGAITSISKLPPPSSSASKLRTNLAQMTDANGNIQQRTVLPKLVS
How it was run: as §1

TBK1 = molecular target: T7, TBK1 (Homo sapiens, UniProt Q9UHD2); details: derived from % inhibition at 1 μM
T7 construct: purchased
T7 sequence (Q9UHD2 1-729): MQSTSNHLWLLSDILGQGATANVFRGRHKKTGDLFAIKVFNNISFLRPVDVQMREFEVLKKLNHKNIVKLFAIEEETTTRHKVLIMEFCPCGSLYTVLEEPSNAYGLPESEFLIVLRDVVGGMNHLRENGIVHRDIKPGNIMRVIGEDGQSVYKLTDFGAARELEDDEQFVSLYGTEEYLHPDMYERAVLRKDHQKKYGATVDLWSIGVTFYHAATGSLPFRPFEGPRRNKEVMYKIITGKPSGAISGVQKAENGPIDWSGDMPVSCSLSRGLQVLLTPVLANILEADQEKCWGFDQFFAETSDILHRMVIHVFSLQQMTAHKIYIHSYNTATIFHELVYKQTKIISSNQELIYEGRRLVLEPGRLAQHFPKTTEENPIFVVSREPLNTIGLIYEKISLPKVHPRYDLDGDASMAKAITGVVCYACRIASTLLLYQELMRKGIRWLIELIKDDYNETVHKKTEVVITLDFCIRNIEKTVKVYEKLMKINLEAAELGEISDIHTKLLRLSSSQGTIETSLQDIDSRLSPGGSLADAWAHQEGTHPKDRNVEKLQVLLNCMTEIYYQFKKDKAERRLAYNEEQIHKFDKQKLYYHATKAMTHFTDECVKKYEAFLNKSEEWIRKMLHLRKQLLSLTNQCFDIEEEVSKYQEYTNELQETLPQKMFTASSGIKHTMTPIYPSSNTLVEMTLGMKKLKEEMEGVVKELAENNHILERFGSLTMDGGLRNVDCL
How it was run: as §1

MST4 = molecular target: T8, MST4 (Homo sapiens, UniProt Q9P289); details: derived from % inhibition at 1 μM
T8 construct: purchased
T8 sequence (Q9P289 whole entry, species assumed): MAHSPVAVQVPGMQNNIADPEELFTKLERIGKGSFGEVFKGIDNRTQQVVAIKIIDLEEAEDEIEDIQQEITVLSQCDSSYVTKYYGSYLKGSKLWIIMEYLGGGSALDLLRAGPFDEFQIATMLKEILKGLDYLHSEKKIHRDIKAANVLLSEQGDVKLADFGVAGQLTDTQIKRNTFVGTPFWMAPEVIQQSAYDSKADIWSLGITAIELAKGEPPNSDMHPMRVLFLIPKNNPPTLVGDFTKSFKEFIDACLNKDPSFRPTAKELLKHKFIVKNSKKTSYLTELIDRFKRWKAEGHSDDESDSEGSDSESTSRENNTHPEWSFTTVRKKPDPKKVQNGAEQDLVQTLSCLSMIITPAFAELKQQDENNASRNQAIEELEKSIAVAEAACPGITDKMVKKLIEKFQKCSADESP
How it was run: as §1

MAPKAPK3 = molecular target: T9, MAPKAPK3 (Homo sapiens, UniProt Q16644); details: derived from % inhibition at 1 μM
T9 construct: purchased
T9 sequence (Q16644 whole entry, species assumed): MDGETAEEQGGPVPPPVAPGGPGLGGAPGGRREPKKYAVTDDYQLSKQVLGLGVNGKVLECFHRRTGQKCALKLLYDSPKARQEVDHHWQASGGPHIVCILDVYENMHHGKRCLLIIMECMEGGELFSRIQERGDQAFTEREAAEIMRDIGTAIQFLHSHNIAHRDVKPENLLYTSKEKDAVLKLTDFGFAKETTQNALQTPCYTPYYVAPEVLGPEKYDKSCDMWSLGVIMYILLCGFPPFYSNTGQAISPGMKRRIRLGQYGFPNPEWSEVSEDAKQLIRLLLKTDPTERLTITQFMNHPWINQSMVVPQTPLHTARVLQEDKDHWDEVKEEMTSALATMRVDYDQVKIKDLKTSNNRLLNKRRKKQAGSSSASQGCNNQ
How it was run: as §1

EPHA2 = molecular target: T10, EPHA2 (Homo sapiens, UniProt P29317); details: derived from % inhibition at 1 μM
T10 construct: purchased
T10 sequence (P29317 24-976, species assumed): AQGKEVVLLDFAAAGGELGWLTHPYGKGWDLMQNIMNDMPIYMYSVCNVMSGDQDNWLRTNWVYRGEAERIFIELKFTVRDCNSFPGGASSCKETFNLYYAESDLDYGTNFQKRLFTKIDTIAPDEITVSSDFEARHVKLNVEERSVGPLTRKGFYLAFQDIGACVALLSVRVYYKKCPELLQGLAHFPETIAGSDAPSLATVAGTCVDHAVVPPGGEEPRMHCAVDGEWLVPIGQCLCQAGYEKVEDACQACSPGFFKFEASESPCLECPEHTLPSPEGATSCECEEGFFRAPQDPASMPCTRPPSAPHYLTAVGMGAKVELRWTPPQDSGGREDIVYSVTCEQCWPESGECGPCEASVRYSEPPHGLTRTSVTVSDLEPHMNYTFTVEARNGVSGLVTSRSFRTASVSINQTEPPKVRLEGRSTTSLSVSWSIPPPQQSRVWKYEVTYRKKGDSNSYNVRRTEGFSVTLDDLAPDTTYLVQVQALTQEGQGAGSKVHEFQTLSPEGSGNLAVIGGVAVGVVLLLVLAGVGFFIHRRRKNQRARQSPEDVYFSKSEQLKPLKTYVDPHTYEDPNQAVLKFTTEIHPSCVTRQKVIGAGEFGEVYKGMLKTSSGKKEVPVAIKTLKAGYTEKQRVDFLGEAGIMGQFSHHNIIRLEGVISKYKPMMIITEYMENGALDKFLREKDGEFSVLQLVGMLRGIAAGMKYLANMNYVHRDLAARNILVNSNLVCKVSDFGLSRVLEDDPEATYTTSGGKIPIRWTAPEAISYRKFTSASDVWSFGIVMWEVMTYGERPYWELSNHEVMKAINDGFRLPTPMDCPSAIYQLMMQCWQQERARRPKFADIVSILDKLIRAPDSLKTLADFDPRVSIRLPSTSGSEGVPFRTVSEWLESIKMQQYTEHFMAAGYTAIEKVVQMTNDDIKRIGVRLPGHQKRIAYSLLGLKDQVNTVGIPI
How it was run: as §1

FGFR1 = molecular target: T11, FGFR1 (Homo sapiens, UniProt P11362); details: derived from % inhibition at 1 μM
T11 construct: purchased
T11 sequence (P11362 22-822, species assumed): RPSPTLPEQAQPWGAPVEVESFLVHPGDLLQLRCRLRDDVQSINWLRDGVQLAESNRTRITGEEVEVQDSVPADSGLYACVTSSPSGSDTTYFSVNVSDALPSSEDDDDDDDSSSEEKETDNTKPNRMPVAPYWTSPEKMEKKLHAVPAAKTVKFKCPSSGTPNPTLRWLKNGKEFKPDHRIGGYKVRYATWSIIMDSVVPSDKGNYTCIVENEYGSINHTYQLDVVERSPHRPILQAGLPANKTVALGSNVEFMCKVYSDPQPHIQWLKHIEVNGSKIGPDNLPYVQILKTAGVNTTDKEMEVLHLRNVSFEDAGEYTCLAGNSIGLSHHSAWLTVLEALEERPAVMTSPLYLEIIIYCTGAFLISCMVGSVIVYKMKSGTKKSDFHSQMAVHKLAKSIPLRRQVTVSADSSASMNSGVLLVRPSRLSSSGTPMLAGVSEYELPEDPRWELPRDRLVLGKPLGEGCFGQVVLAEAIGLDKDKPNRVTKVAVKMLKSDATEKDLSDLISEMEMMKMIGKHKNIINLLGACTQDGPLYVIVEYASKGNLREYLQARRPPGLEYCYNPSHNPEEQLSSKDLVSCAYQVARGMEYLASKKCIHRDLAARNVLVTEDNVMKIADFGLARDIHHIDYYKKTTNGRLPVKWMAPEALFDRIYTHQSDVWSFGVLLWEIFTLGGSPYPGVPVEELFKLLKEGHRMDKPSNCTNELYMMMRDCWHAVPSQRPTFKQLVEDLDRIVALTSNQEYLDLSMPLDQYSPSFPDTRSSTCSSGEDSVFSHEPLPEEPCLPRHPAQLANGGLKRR
How it was run: as §1

T1 sequence (P45984 whole entry, species assumed): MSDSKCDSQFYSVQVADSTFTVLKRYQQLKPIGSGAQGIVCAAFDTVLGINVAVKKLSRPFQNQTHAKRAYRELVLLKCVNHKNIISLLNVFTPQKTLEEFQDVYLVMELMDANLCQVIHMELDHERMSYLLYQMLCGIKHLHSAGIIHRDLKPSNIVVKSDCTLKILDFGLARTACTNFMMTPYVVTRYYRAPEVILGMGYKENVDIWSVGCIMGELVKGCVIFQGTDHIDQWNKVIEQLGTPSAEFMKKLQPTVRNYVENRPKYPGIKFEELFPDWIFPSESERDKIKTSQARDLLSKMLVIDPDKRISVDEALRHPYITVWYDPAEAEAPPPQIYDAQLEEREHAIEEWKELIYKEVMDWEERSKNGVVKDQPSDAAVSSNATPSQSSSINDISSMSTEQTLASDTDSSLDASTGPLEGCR

| Structure (SMILES) | IC50 (MAPK9) | IC50 (MAP3K11 (MLK3)) | IC50 (RPS6KA3) | IC50 (DYRK3) | IC50 (DYRK1A) | IC50 (DYRK2) | IC50 (TBK1) | IC50 (MST4) | IC50 (MAPKAPK3) | IC50 (EPHA2) | IC50 (FGFR1) | remaining activity at 1 µM (MAP3K11 (MLK3); read-out: residual kinase activity MLK3) |
| --- | --- | --- | --- | --- | --- | --- | --- | --- | --- | --- | --- | --- |
| c1ccc(Cc2c[nH]c3ncsc23)cc1 [Compound A7, 6-benzyl-4H-pyrrolo[2,3-d]thiazole] | 10000 to 100000 nM | 10000 to 100000 nM | 1000 to 10000 nM | 10000 to 100000 nM | > 1000 nM | > 1000 nM | > 1000 nM | > 1000 nM | > 1000 nM | 10000 to 100000 nM | 1000 to 10000 nM | – |
| Nc1ncsc1C#Cc1cnc2[nH]ccc2c1 [Compound A22, 5-(1H-pyrrolo[2,3-b]pyridin-5-ylethynyl)thiazol-4-ylamine] | > 1000 nM | 10 to 1000 nM | 10000 to 100000 nM | 10000 to 100000 nM | > 1000 nM | > 1000 nM | > 1000 nM | 1000 to 10000 nM | > 1000 nM | > 1000 nM | 1000 to 10000 nM | 23% |
| CC(C)(C)OC(=O)Nc1nc(-c2ccncc2)sc1C#CCN1CCOCC1 [Compound A25, tert-butyl[5-(3-morpholin-4-ylprop-1-ynyl)-2-pyridin-4-ylthiazol-4-yl]-carbamate] | > 1000 nM | > 1000 nM | > 1000 nM | 10000 to 100000 nM | > 1000 nM | > 1000 nM | 10000 to 100000 nM | > 1000 nM | 10000 to 100000 nM | > 1000 nM | > 1000 nM | – |
| CC(C)(C)OC(=O)Nc1ncsc1C#CCN1C(=O)c2ccccc2C1=O [Compound A26, tert-butyl{5-[3-(1,3-dioxo-1,3-dihydroisoindol-2-yl)prop-1-ynyl]-thiazol-4-yl}carbamate] | > 1000 nM | 1000 to 10000 nM | > 1000 nM | 1000 to 10000 nM | 10000 to 100000 nM | > 1000 nM | > 1000 nM | 10000 to 100000 nM | > 1000 nM | > 1000 nM | 1000 to 10000 nM | – |
| Nc1ncsc1C#Cc1cccc(O)c1 [Compound A27, 3-(4-aminothiazol-5-ylethynyl)phenol] | 1000 to 10000 nM | 10000 to 100000 nM | 1000 to 10000 nM | 10000 to 100000 nM | 10000 to 100000 nM | 1000 to 10000 nM | > 1000 nM | > 1000 nM | 10000 to 100000 nM | > 1000 nM | > 1000 nM | – |

From patent publication US8703961B2, “Thiazole derivatives for the treatment of diseases such as cancer” (Merck Patent GmbH, priority 2009, dated 2014)
